{"source": "patent US11865098B1", "about": "“Methods and compositions for treating excessive sleepiness” (Axsome Malta Ltd., priority 2017, dated 2024)", "test_system": "adult patients with OSA and ES", "experiment": "Safety and tolerability (TEAEs, vital signs), 12-week parallel study in OSA", "type": "in vivo, human", "conditions": "for Anxiety, incidence / Any TEAE, incidence / Decreased appetite, incidence / Diarrhea, incidence / Discontinuations due to TEAEs, incidence / Dry mouth, incidence / Feeling jittery, incidence / Headache, incidence / Insomnia, incidence / Irritability, incidence / Nasopharyngitis, incidence / Nausea, incidence / Pruritus, incidence / Serious TEAEs, incidence / Sinusitis, incidence: safety population", "protocol": "The study was a 12-week, double-blind, placebo-controlled, parallel design study as described in greater detail in Example 1 (Schweitzer et al., Sleep 40(Abstract Supplement):A237. Abstract 0641 (2017)). Patients were randomized (1:1:2:2:2) to APC 37.5, 75, 150, 300 mg, or placebo for 12 weeks, and were stratified by adherence or non-adherence with primary OSA therapy (adherent definition was use for ≥4 hours per night on >70% of nights). Two patient-reported measures were included as secondary efficacy outcomes to evaluate the effects of APC on functional status and work productivity and activity impairment at baseline and weeks 1, 4, 8, and 12. The Functional Outcomes of Sleep questionnaire short version (FOSQ-10) (Chasens et al., Sleep 32(7):915 (2009)) evaluated the effects of ES on functioning. The Work Productivity and Activity Impairment questionnaire for Specific Health Problems (WPAI:SHP) (Reilly et al., Pharmacoeconomics 4(5):353 (1993); Reilly, Work Productivity and Activity Impairment Questionnaire: Specific Health Problem V2.0 (WPAI: SHP). www.reillyassociates.net/WPAI_SHP) evaluated work productivity impairment among employed patients and overall activity impairment outside of work among all patients for the past 7 days. Four outcomes are available from the WPAI:SHP: Absenteeism (percent work time missed due to health); Presenteeism (percent impairment while working due to health); Percent overall work impairment (calculated from absenteeism and presenteeism); and Percent activity impairment due to health. The FOSQ-10 was evaluated as change over time compared with placebo (least squares (LS) mean); the 4 WPAI outcomes were evaluated at week 12 compared to placebo. Efficacy analyses were based on the modified intent-to-treat population (mITT) and there was no multiplicity adjustment for the FOSQ-10 or WPAI:SHP. Safety and tolerability were assessed based on treatment-emergent adverse events (TEAEs), vital signs, electrocardiogram test, physical exams, Columbia-Suicide Severity Rating Scale, and laboratory tests in the safety population.\nEfficacy analyses were based on the modified intent-to-treat (mITT) population; there was no multiplicity adjustment for the SF-36 v2 or EQ-5D-5L. SF-36 v2 scores were scaled from 0 to 100 (higher scores on all scales represent better health), transformed to norm-based scores using US general-population data from SF-36 Manuals (Ware Jr et al., User's Manual for the SF-36v2™ Health Survey (2nd ed.). QualityMetric Incorporated (Lincoln, RI); 2007), and were analyzed using a mixed-effect model with repeated measures (MMRM); and baseline value of the efficacy endpoint was used to determine differences in changes from baseline. EQ-5D-5L VAS and index-score data were analyzed using an MMRM model. Safety and tolerability were assessed based on treatment-emergent adverse events (TEAEs), vital signs, electrocardiogram test, physical exams, and laboratory tests.", "data": [{"molecule": "NC(=O)OC[C@H](N)Cc1ccccc1", "note": "[JZP-110, (R)-2-amino-3-phenylpropyl carbamate]", "values": [{"measurement": "Serious TEAEs reported (events)", "setting": "37.5 mg", "result": "bile duct obstruction (n=1) and streptococcal endocarditis (n=1)"}, {"measurement": "Anxiety, incidence", "setting": "37.5 mg (n = 58)", "result": "1 (1.7) n (%)"}, {"measurement": "Any TEAE, incidence", "setting": "37.5 mg (n = 58)", "result": "37 (63.8) n (%)"}, {"measurement": "Decreased appetite, incidence", "setting": "37.5 mg (n = 58)", "result": "1 (1.7) n (%)"}, {"measurement": "Diarrhea, incidence", "setting": "37.5 mg (n = 58)", "result": "1 (1.7) n (%)"}, {"measurement": "Discontinuations due to TEAEs, incidence", "setting": "37.5 mg (n = 58)", "result": "3 (5.2) n (%)"}, {"measurement": "Dry mouth, incidence", "setting": "37.5 mg (n = 58)", "result": "1 (1.7) n (%)"}, {"measurement": "Feeling jittery, incidence", "setting": "37.5 mg (n = 58)", "result": "3 (5.2) n (%)"}, {"measurement": "Headache, incidence", "setting": "37.5 mg (n = 58)", "result": "4 (6.9) n (%)"}, {"measurement": "Insomnia, incidence", "setting": "37.5 mg (n = 58)", "result": "1 (1.7) n (%)"}, {"measurement": "Irritability, incidence", "setting": "37.5 mg (n = 58)", "result": "3 (5.2) n (%)"}, {"measurement": "Nasopharyngitis, incidence", "setting": "37.5 mg (n = 58)", "result": "2 (3.4) n (%)"}, {"measurement": "Nausea, incidence", "setting": "37.5 mg (n = 58)", "result": "3 (5.2) n (%)"}, {"measurement": "Pruritus, incidence", "setting": "37.5 mg (n = 58)", "result": "3 (5.2) n (%)"}, {"measurement": "Serious TEAEs, incidence", "setting": "37.5 mg (n = 58)", "result": "2 (3.4) n (%)"}, {"measurement": "Sinusitis, incidence", "setting": "37.5 mg (n = 58)", "result": "1 (1.7) n (%)"}, {"measurement": "Serious TEAEs reported (events)", "setting": "37.5 mg, listed as APC", "result": "bile duct obstruction (n=1), and streptococcal endocarditis (n=1)"}, {"measurement": "Anxiety, incidence", "setting": "75 mg (n = 62)", "result": "2 (3.2) n (%)"}, {"measurement": "Any TEAE, incidence", "setting": "75 mg (n = 62)", "result": "30 (48.4) n (%)"}, {"measurement": "Decreased appetite, incidence", "setting": "75 mg (n = 62)", "result": "3 (4.8) n (%)"}, {"measurement": "Diarrhea, incidence", "setting": "75 mg (n = 62)", "result": "3 (4.8) n (%)"}, {"measurement": "Discontinuations due to TEAEs, incidence", "setting": "75 mg (n = 62)", "result": "2 (3.2) n (%)"}, {"measurement": "Dry mouth, incidence", "setting": "75 mg (n = 62)", "result": "1 (1.6) n (%)"}, {"measurement": "Feeling jittery, incidence", "setting": "75 mg (n = 62)", "result": "3 (4.8) n (%)"}, {"measurement": "Headache, incidence", "setting": "75 mg (n = 62)", "result": "5 (8.1) n (%)"}, {"measurement": "Insomnia, incidence", "setting": "75 mg (n = 62)", "result": "0 n (%)"}, {"measurement": "Irritability, incidence", "setting": "75 mg (n = 62)", "result": "0 n (%)"}, {"measurement": "Nasopharyngitis, incidence", "setting": "75 mg (n = 62)", "result": "1 (1.6) n (%)"}, {"measurement": "Nausea, incidence", "setting": "75 mg (n = 62)", "result": "3 (4.8) n (%)"}, {"measurement": "Pruritus, incidence", "setting": "75 mg (n = 62)", "result": "0 n (%)"}, {"measurement": "Serious TEAEs, incidence", "setting": "75 mg (n = 62)", "result": "0 n (%)"}, {"measurement": "Sinusitis, incidence", "setting": "75 mg (n = 62)", "result": "4 (6.5) n (%)"}, {"measurement": "Serious TEAEs reported (events)", "setting": "150 mg", "result": "hyperglycemia (n=1)"}, {"measurement": "Anxiety, incidence", "setting": "150 mg (n = 117)", "result": "6 (5.1) n (%)"}, {"measurement": "Any TEAE, incidence", "setting": "150 mg (n = 117)", "result": "83 (70.9) n (%)"}, {"measurement": "Decreased appetite, incidence", "setting": "150 mg (n = 117)", "result": "9 (7.7) n (%)"}, {"measurement": "Diarrhea, incidence", "setting": "150 mg (n = 117)", "result": "5 (4.3) n (%)"}, {"measurement": "Discontinuations due to TEAEs, incidence", "setting": "150 mg (n = 117)", "result": "5 (4.3) n (%)"}, {"measurement": "Dry mouth, incidence", "setting": "150 mg (n = 117)", "result": "5 (4.3) n (%)"}, {"measurement": "Feeling jittery, incidence", "setting": "150 mg (n = 117)", "result": "1 (0.9) n (%)"}, {"measurement": "Headache, incidence", "setting": "150 mg (n = 117)", "result": "10 (8.5) n (%)"}, {"measurement": "Insomnia, incidence", "setting": "150 mg (n = 117)", "result": "3 (2.6) n (%)"}, {"measurement": "Irritability, incidence", "setting": "150 mg (n = 117)", "result": "4 (3.4) n (%)"}, {"measurement": "Nasopharyngitis, incidence", "setting": "150 mg (n = 117)", "result": "7 (6.0) n (%)"}, {"measurement": "Nausea, incidence", "setting": "150 mg (n = 117)", "result": "10 (8.5) n (%)"}, {"measurement": "Pruritus, incidence", "setting": "150 mg (n = 117)", "result": "1 (0.9) n (%)"}, {"measurement": "Serious TEAEs, incidence", "setting": "150 mg (n = 117)", "result": "1 (0.9) n (%)"}, {"measurement": "Sinusitis, incidence", "setting": "150 mg (n = 117)", "result": "0 n (%)"}, {"measurement": "Anxiety, incidence", "setting": "300 mg (n = 118)", "result": "16 (13.6) n (%)"}, {"measurement": "Any TEAE, incidence", "setting": "300 mg (n = 118)", "result": "91 (77.1) n (%)"}, {"measurement": "Decreased appetite, incidence", "setting": "300 mg (n = 118)", "result": "14 (11.9) n (%)"}, {"measurement": "Diarrhea, incidence", "setting": "300 mg (n = 118)", "result": "8 (6.8) n (%)"}, {"measurement": "Discontinuations due to TEAEs, incidence", "setting": "300 mg (n = 118)", "result": "15 (12.7) n (%)"}, {"measurement": "Dry mouth, incidence", "setting": "300 mg (n = 118)", "result": "9 (7.6) n (%)"}, {"measurement": "Feeling jittery, incidence", "setting": "300 mg (n = 118)", "result": "7 (5.9) n (%)"}, {"measurement": "Headache, incidence", "setting": "300 mg (n = 118)", "result": "17 (14.4) n (%)"}, {"measurement": "Insomnia, incidence", "setting": "300 mg (n = 118)", "result": "11 (9.3) n (%)"}, {"measurement": "Irritability, incidence", "setting": "300 mg (n = 118)", "result": "1 (0.8) n (%)"}, {"measurement": "Nasopharyngitis, incidence", "setting": "300 mg (n = 118)", "result": "8 (6.8) n (%)"}, {"measurement": "Nausea, incidence", "setting": "300 mg (n = 118)", "result": "12 (10.2) n (%)"}, {"measurement": "Pruritus, incidence", "setting": "300 mg (n = 118)", "result": "0 n (%)"}, {"measurement": "Serious TEAEs, incidence", "setting": "300 mg (n = 118)", "result": "0 n (%)"}, {"measurement": "Sinusitis, incidence", "setting": "300 mg (n = 118)", "result": "3 (2.5) n (%)"}, {"measurement": "Mean increase from baseline in diastolic blood pressure", "setting": "12-week OSA study", "result": "1-3 mmHg"}, {"measurement": "Mean increase from baseline in pulse rate", "setting": "12-week OSA study", "result": "2-5 beats/minute"}, {"measurement": "Mean increase from baseline in systolic blood pressure", "setting": "12-week OSA study", "result": "1-4 mmHg"}, {"measurement": "Anxiety, incidence", "setting": "All doses (n = 355)", "result": "25 (7.0) n (%)"}, {"measurement": "Any TEAE, incidence", "setting": "All doses (n = 355)", "result": "241 (67.9) n (%)"}, {"measurement": "Decreased appetite, incidence", "setting": "All doses (n = 355)", "result": "27 (7.6) n (%)"}, {"measurement": "Diarrhea, incidence", "setting": "All doses (n = 355)", "result": "17 (4.8) n (%)"}, {"measurement": "Discontinuations due to TEAEs, incidence", "setting": "All doses (n = 355)", "result": "25 (7.0) n (%)"}, {"measurement": "Dry mouth, incidence", "setting": "All doses (n = 355)", "result": "16 (4.5) n (%)"}, {"measurement": "Feeling jittery, incidence", "setting": "All doses (n = 355)", "result": "14 (3.9) n (%)"}, {"measurement": "Headache, incidence", "setting": "All doses (n = 355)", "result": "36 (10.1) n (%)"}, {"measurement": "Insomnia, incidence", "setting": "All doses (n = 355)", "result": "15 (4.2) n (%)"}, {"measurement": "Irritability, incidence", "setting": "All doses (n = 355)", "result": "8 (2.3) n (%)"}, {"measurement": "Nasopharyngitis, incidence", "setting": "All doses (n = 355)", "result": "18 (5.1) n (%)"}, {"measurement": "Nausea, incidence", "setting": "All doses (n = 355)", "result": "28 (7.9) n (%)"}, {"measurement": "Pruritus, incidence", "setting": "All doses (n = 355)", "result": "4 (1.1) n (%)"}, {"measurement": "Serious TEAEs, incidence", "setting": "All doses (n = 355)", "result": "3 (0.8) n (%)"}, {"measurement": "Sinusitis, incidence", "setting": "All doses (n = 355)", "result": "8 (2.3) n (%)"}]}]}
